Reference: patent publication US11246857B2, “Anti-fungal inhibitors” (THE JOHNS HOPKINS UNIVERSITY, priority 2017, dated 2022)
Converted amounts (≈) assume the structure as drawn. “Also recorded” adds a separate entry of the source. Where two headings read alike, the source gives them in different places.

Columns and labels:
C. neoformans [1] = assay: Growth inhibition assay (Bioscreen C, 2-fold dilution series, plating for fungicidal vs fungistatic) in C. neoformans; format: cell-based, Cryptococcus neoformans H99; details: for fungicidal activity, lowest concentration: plated after 72 h, 24 h recovery at 30° on Sabouraud agar; for antifungal activity (in words): dose-response
Method: Primary screen and dose-response of selected candidates. To identify antifungal candidates in the MMV Malaria Box, the inventors initially casted the widest possible net. Growth inhibition assays were done using the Bioscreen C™ with constant agitation, in rich media and physiological relevant temperature of 37° to test the 400 antimalarial compounds against C. neoformans. […] To examine whether or not each dose was fungicidal or just fungistatic, the inventors plated a sample of each dilution after 72 hours. They were allowed to grow at the optimal growth temperature of 30° for 24 hours on Sabouraud rich agar plates and colonies were examined for growth. […]
(§1) Strains. H99 (Serotype A) is a well-characterized wild type laboratory reference strain of Cryptococcus neoformans (22). H99 was selected because it is a virulent strain widely by the field. Cryptococcus gattii strain R265 is used as the primary reference strain to which the genome is based (ATCC MYA-4093). This strain was isolated from the Vancouver Island (British Columbia, Canada) outbreak of 2004 (23, 24). H99 and R265 were maintained in Sabouraud (Sab) dextrose broth at 30° C. with constant 200 RPM agitation. One day prior to each experimental drug treatment, Sab broth was inoculated from glycerol stock and grown overnight to log phase before washing with PBS and resuspending in fresh Sab broth prior to treatment.
(§2) Compound library. 400 compounds were made available by the Medicines for Malaria Venture (Geneva, Switzerland) in the form of the open-access MMV Malaria Box. Compounds were stored at −80° C. in 100% DMSO at a concentration of 10 mM. Before usage, compounds were thawed at room temperature and thoroughly mixed. Compounds were diluted in 2-fold series 10 mM down to […] with DMSO before subsequent growth inhibition assays. Growth inhibition assays. The effectiveness of these MMV Malaria Box compounds against C. neoformans was measured by turbidity over time. The Bioscreen C™ (Growth Curves USA, Piscataway, N.J.) allows us to analyze ˜60 compounds at a time in triplicate with constant temperature and agitation. Assays were measured at 420-580 nm, wideband range every 15′ for 72 h at 37° C. to simulate physiologically relevant temperatures. Wideband is generally used for turbidity measurements, as it is mostly insensitive to changes in color. […] We inoculated 5×10^3 H99 C. neoformans and SC5314 C. albicans in 200 μl of Sabouraud dextrose broth in each of the honeycomb (HC-2) plate's 100 wells. A two-fold dilution series of each compound from 50 μM down to 0.39 μM final concentration were tested for effects against C. neoformans. To qualitatively differentiate fungistatic and fungicidal activity, 5 μl of each well after 72 h were spotted on Sabouraud dextrose agar rich media plates and allowed to grow at the optimal temperature 30° C. to induce a full recovery of viable yeast. Spots were noted after 24 h to identify fungicidal versus fungistatic concentrations of each compound. […] Mammalian cell viability and toxicity assays.

L. prolificans = assay: Growth inhibition assay, 2-fold dilution series, in L. prolificans; format: cell-based, Lomentospora prolificans; details: for MIC: Lomentospora prolificans, after 72 h
C. gattii = assay: Growth inhibition assay, 2-fold dilution series, in C. gattii; format: cell-based, Cryptococcus gattii R265; details: for MIC: Cryptococcus gattii, after 72 h
Method: as §1, §2

C. albicans = assay: Growth inhibition assay, 2-fold dilution series, in C. albicans; format: cell-based, Candida albicans SC5314; details: for MIC: Candida albicans, after 72 h
Method: as §2

human fibroblast = assay: Toxicity against human fibroblast; format: cell-based
Description: XlogP values are derived from PubChem and describe the lipophilicity of the molecule. The topological polar surface area (tPSA) is a metric for predicting cell penetration, with values <140 to be favorable. […] Toxicity against human fibroblast was used to calculate the therapeutic index TI.

[2] = system: murine bone marrow derived macrophages (BMDM); assay: Mammalian cell viability, MTT assay in BMDM; format: cell-based
[3] = system: murine bone marrow derived macrophages (BMDM); assay: Mammalian cell lysis, LDH release assay in BMDM; format: cell-based
C. neoformans [4] = assay: Imaging flow cytometry (Amnis ImageStream) of DM262 treated C. neoformans; format: cell-based, Cryptococcus neoformans
[5] = 72 h drug exposure in liquid culture, then recovery on agar plates overnight
[6] = Cryptococcus neoformans, C. neoformans, after 72 h, read-out: MIC
[7] = highest concentration studied 50 μM

SMILES	MIC (C. neoformans [1]; [5]) [µg/mL]	fold more effective than fluconazole (fungicidal activity) (C. neoformans [1]; C. neoformans) [fold]	fungicidal activity, lowest concentration (C. neoformans [1]; C. neoformans) [µM]	MIC (C. neoformans [1]; [6]) [µM]	MIC (L. prolificans) [µM]	MIC (C. gattii) [µM]	MIC (C. albicans) [µM]	Toxicity human fibroblast (human fibroblast) [µM]	antifungal activity (in words) (C. neoformans [1]; C. neoformans)	also measured
Nc1ccc(-c2nc3ccc(Cc4ccc5nc(C6CCC(N)CC6)[nH]c5c4)cc3[nH]2)cc1 (centres unmarked) [DM262]	0.3	16	1.56	0.8	6.3 (≈ 2.75 µg/mL)	50 (≈ 21.8 µg/mL)	0.8 (≈ 0.349 µg/mL)	11.4		fold more effective than fluconazole (fungistatic activity) (C. neoformans [1]; C. neoformans): 32 fold; fungistatic activity, lowest concentration (C. neoformans [1]; C. neoformans, 72 h): 0.8 µM; concentration giving significant delay in growth (C. gattii): ≥ 12.5 µM; time until log phase is reached (C. gattii; 12.5 μM treatment, growth curves): approximately 48 h; concentration with minimal variance from DMSO vehicle control ([2]; BMDM): up to 12.5 μM; LD50 ([2]; BMDM viability): 50 µM; LD50 ([3]; BMDM cell lysis, LDH release): 50 µM; concentration with minimal variance from DMSO vehicle control ([3]; BMDM, LDH): up to 12.5 μM; concentration at which cells were dramatically trending towards apoptosis (apoptotic index, IDEAS 6.2) (C. neoformans [4]; 24 h treatment, morphology of the nucleus): 6.25 µM; effect on average size of the cells (C. neoformans [4]; brightfield, ImageStream): No significant change; also recorded: no effect
OC(Cn1cncn1)(Cn1cncn1)c1ccc(F)cc1F [Fluconazole]	7.6			25	> 50	50 (≈ 15.3 µg/mL)	> 50			fungicidal concentration (L. prolificans; [7]): > 50 µM; response in growth inhibition assay (in words) (L. prolificans; up to the highest concentration tested, 50 μM): complete resistance; concentration at which growth was unaffected (C. gattii): ≤ 6.3 µM; effect on final OD420-580 (in words) (C. albicans): only slight decrease; fungicidal concentration (C. albicans; [7]): > 50 µM
Cc1ccc2cc3c(N)c4c(C)ccc(C)c4nc3nc2c1 [Compound 253]	7.2							11.4	low activity	
O=C(Nc1cccc(C(F)(F)F)c1)c1cc(Cl)ccc1O [Compound 155]	0.5	8	3.12					0.024		
Cc1ccc2c(c1)c1cc(C)ccc1n2CC(O)CNC1CCCCC1 (centres unmarked) [Compound 380]	0.9	8	3.12					4.03		
Cc1ccc(Nc2nc(-c3ccccn3)cs2)cc1 [Compound 64]	1.6								low activity	
